Residues, ends and D or L forms follow the SMILES beside them. *: point of attachment. Cbz = O=C(OCc1ccccc1)*; tBu = CC(C)(C)*
Assays:
Histomonas meleagridis = conditions: 300-400 ppm, cited from earlier work
cathepsin L = cathepsin L (Homo sapiens, UniProt P07711); conditions: cited from earlier work
T. gallinae [1] = assay: in vitro viability of T. gallinae (viable-to-dead ratio, DAPI staining); assay type: cell-based, Trichomonas gallinae; conditions: different concentrations; after 24 hours of treatment
Description: (§1) Z—FY—CHO was tested in an in vitro assay on growth and viability of two strains of T. gallinae (Vienna strain and ATCC 30095). T. gallinae is cultured in vitro under axenic conditions. Both strains are cultured in ATCC® Medium 2154 (LYI Entamoeba medium) which is prepared according to the recommendations of ATCC. Culture conditions are anaerobic at 37° C. Cultures are kept in sterile 50 ml plastic tubes in a total volume of 10 ml. T. gallinae cultures are passaged regularly (in two-day intervals) in advance to maintain the strains for the study.
(§2) Five concentrations of each substance were tested against T. gallinae, namely 1 nM, 10 nM, 100 nM, 1000 nM, and 10000 nM. The total exposure time of the test compounds for the efficacy assay was 72 hours; media were renewed in intervals of 24 hours. Efficacy was measured after 24 hours of incubation.
The total parasite number is calculated before a subsample is subject to counting of viable and dead parasites. For counting, parasites are stained by DAPI nucleus staining for differentiation of viable and dead parasites.

[2] = system: T. gallinae cultured from the Vienna strain; assay: in vivo efficacy study in pigeons inoculated with T. gallinae; set-up: species or system Columba livia forma domestica; conditions: 5 mg/kg oral twice daily during 4 days, 15 birds per group
Description: (§3) Thirty Columba livia forma domestica of both gender (2 groups of fifteen birds) were inoculated per os via a syringe with 2 million T. gallinae cultured from the Vienna strain. Initial age of the pigeons was 4-5 months. Two days later the pigeons were treated with twice daily oral administration of 5 mg/kg of Z—FY—CHO or the placebo (vehicle alone) during 4 days. The formulation was composed of 50 mg of the agent added to 1.0 ml 96 g/v % ethanol and 4 gram of prewarmed Solutol HS15. The formulation was stirred to a clear solution, then it was topped up with prewarmed distilled water to a volume of 10 ml. From this solution 0.1 ml per 100 g body weight was administered (=5 mg/kg). […] Regurgitation has been detected first in one pigeon from the placebo group in the evening on day of infection. […] No gross pathological findings in the esophagus or crop were detected during the necropsy. However, heterophilic infiltrates in the mucosa as well as in the submucous tissue and lymphocytes and plasmacells in the submucous tissue have been detected histopathologically in total eight pigeons (27%). Catarrhal erosive esophagitis and ingluvitis was significant more often detected in pigeons from the placebo group (7 of 8 pigeons with inflammatory reaction of the esophagus and crop, 88%; p=0.018).

T. gallinae [3] = assay: in vitro growth of T. gallinae (total trophozoite number); assay type: cell-based, Trichomonas gallinae; conditions: 10,000 nM, after 24 hours of treatment, normalized to 1% DMSO-treated group NCA
Description: as §1
Quantification of total parasite number: The total parasite number is calculated separately for each tube. Therefore, the contents of each tube are centrifuged and the sediment resuspended in a given volume. A dilution of a subsample is being examined in a Neubauer counting chamber, the total number of parasites counted and the number of parasites in the respective tube be calculated.
Each treatment group consists of 3 identical replicates, i.e. 3 tubes with identical treatment (triplicate).
as §2

coccidiae = assay: coccidiosis finding in the in vivo pigeon study; set-up: species or system Columba livia forma domestica; conditions: 5 mg/kg oral twice daily during 4 days; 3 of 15 placebo pigeons still showed coccidiae
Description: as §3

[4] = side effects in the in vivo pigeon study; set-up: species or system Columba livia forma domestica; conditions: 10 mg/kg per day oral, 4 days, pigeons
Description: as §3

Eimeria spp. = conditions: 20 mg/kg body weight, up to 14 days before the experimental infection; on average; cited from earlier work

Sequence of cathepsin L (P07711 114-333, species assumed): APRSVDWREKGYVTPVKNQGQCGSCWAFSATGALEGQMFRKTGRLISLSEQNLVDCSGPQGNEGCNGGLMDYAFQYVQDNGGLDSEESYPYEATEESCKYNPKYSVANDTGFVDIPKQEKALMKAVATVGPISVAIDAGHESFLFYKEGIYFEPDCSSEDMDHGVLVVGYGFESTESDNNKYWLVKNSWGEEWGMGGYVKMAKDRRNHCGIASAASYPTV

Question: Which tolerability (Histomonas meleagridis; turkeys) does the source give for `CC1CS(=O)(=O)CCN1/N=C/c1ccc([N+](=O)[O-])o1` (stereo not drawn) [Nifurtimox] here?
Answer: tolerated by turkeys

Question: And the “efficacy (antiprotozoal)” value (Histomonas meleagridis)?
Answer: effective

Question: For `O=C[C@H](Cc1ccccc1)NC(=O)[C@H](Cc1ccccc1)NC(=O)OCc1ccccc1` [a, Z-Phe-Phe-CHO] (Cbz-Phe-Phe-aldehyde), which IC50 (cathepsin L) is on record?
Answer: 0.74 nM

Question: For `O=C[C@H](Cc1ccc(O)cc1)NC(=O)[C@H](Cc1ccccc1)NC(=O)OCc1ccccc1` [b, N-(benzyloxycarbonyl)-L-phenylalanyl-L-tyrosinal] (Cbz-Phe-Tyr-aldehyde), which “viable-to-dead ratios compared to the control group NCA” value (T. gallinae [1]) is on record?
Answer: Markedly lower

Question: What about the pigeons with regurgitation ([2]; placebo 7 of 15, p=0.018) of the same compound?
Answer: one

Question: What about the “pigeons with catarrhal erosive esophagitis and ingluvitis (histopathology)” value ([2]; placebo 7 pigeons, p=0.018) of the same compound?
Answer: one

Question: What about the “trophozoite number relative to group NCA (control group)” value (T. gallinae [3]; ATCC 30095 strain) of the same compound?
Answer: 26.3%

Question: And the “trophozoite number relative to group NCA (control group)” value (T. gallinae [3]; Vienna strain)?
Answer: 24.0%

Question: And the “detection of coccidiae after treatment” value (coccidiae)?
Answer: no coccidiae could be detected

Question: What about the side effects [4] of the same compound?
Answer: no obvious and/or statistically significant side effects

Question: For `CC(C)C[C@@H](C=O)NC(=O)[C@H](Cc1ccccc1)NC(=O)OCc1ccccc1` [c, Z-Phe-Leu-CHO] (Cbz-Phe-Leu-aldehyde), which IC50 (cathepsin L) is on record?
Answer: 0.78 nM

Question: For `C[C@@H](C=O)NC(=O)[C@H](Cc1ccccc1)NC(=O)OCc1ccccc1` [d, Z-Phe-Ala-CHO], which IC50 (cathepsin L) is on record?
Answer: 15.5 nM

Question: With `COc1ccc(C[C@@H](C=O)NC(=O)[C@H](Cc2ccccc2)NC(=O)OCc2ccccc2)cc1` [e, Z-Phe-Tyr(Me)-CHO] (Cbz-Phe-Tyr(Me)-aldehyde) as the compound, how does the IC50 (cathepsin L) read?
Answer: 2.95 nM

Question: Which IC50 (cathepsin L) does the source give for `CC(C)(C)Oc1ccc(CC(C=O)NC(=O)C(Cc2ccccc2)NC(=O)OCc2ccccc2)cc1` (stereo not drawn) [f, Z-Phe-Tyr(Bu)-CHO] (Cbz-Phe-Tyr(tBu)-aldehyde; configuration not given here) here?
Answer: 6.96 nM

Question: With `Cc1cc(-n2c(=O)[nH]c(=O)n(C)c2=O)ccc1Oc1ccc(SC(F)(F)F)cc1` [toltrazuril] as the compound, how does the “reduction in the number of oocysts in individual fecal samples” value (Eimeria spp.) read?
Answer: more than 97%

— patent publication US20190030113A1, “DIPEPTIDYL ALDEHYDES FOR THE TREATMENT AND/OR PREVENTION OF PARASITIC DISEASES” (AXIAVA PHARMA UG, priority 2017, published 2019)
